These results are taken from US20230203004A1, “RSV INHIBITING 3-SUBSTITUTED QUINOLINE AND CINNOLINE DERIVATIVES” (Janssen Sciences Ireland Unlimited Company, priority 2020, published 2023).

pEC50: −log10 of the molar value.

Data set [1] is described as follows: Cytotoxicity in HeLa cells (ATP content, ATPlite kit). The conditions noted are these: human, TOX HELA CC50. Format: cell-based. A digest of the protocol: (§1)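 HeLa cells infected with GFP-expressing rgRSV224 at MOI 1 in RPMI/10% FBS, 0.05% DMSO, with 9 serial 4-fold compound dilutions; 3 days at 37 °C, GFP read by laser microscopy for EC50. Cytotoxicity: uninfected HeLa cells, 3 days, cellular ATP (ATPlite) for CC50.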
Background: ATP-based viability assays read luminescence as a measure of living cells.

For data set [2], the system named is rgRSV224 virus. The experiment in a line: Antiviral activity: rgRSV224 (GFP) replication in HeLa cells. Format: cell-based, respiratory syncytial virus (RSV). The settings on record: human respiratory syncytial virus, HeLa, 72 h, read-out: RSV HELA EC50, HeLa cells, rgRSV224 MOI = 1, GFP expression three days post-virus exposure; averaged data of several repeat experiments. A digest of the protocol: as §1

In general, CC50 refers to the concentration at which the toxic effect on the cells reaches its halfway point. A high value points to better tolerance by the cells. A word on the pEC50: it is −log10 of the EC50, conventionally taken in molar units.

Take `Cc1cc2cc(C(=O)NC[C@](O)(c3cc(C(C)(C)O)c(F)c(-c4ccc(F)cc4)n3)C(F)(F)F)cc(OC3CC3)c2nn1` [compound 318, (-)Cyclopropoxy-3-Methyl-N-(3.3.3-Trifluoro-2-(5-Fluoro-6-(4-Fluorophenyl)-4-(2-Hydroxypropan-2-yl)Pyridin-2-yl)-2-Hydroxypropyl)Cinnoline-6-Carboxamide]: in data set [1], it took 22 µM to reach half-maximal cytotoxicity (CC50 at 3 days). Besides, the negative logarithm of the EC50 (pEC50) in data set [2] is 8.85.
Consider `COc1cc(C(=O)NC[C@](O)(c2cc(C(C)(C)O)c(F)c(-c3ccc(F)cc3)n2)C(F)(F)F)cc2cc(C3CC3)cnc12` [compound 321, (-)Cyclopropyl-8-Methoxy-N-(3,3,3-Trifluoro-2-(5-Fluoro-6-(4-Fluorophenyl)-4-(2-Hydroxypropan-2-yl)Pyridin-2-yl)-2-Hydroxypropyl)Quinoline-6-Carboxamide], for which, in data set [1], the midpoint of cytotoxicity, the CC50 at 3 days, lay at 13 µM. Also, the pEC50 in data set [2] is 7.27.
The corresponding values for `COc1cc(C(=O)NC[C@](O)(c2cc(C(C)(C)O)c(F)c(-c3ccc(F)cc3)n2)C(F)(F)F)cc2cc(C)cnc12` [compound 322, (-)Methoxy-3-Methyl-N-(3,3,3-Trifluoro-2-(5-Fluoro-6-(4-Fluorophenyl)-4-(2-Hydroxypropan-2-yl)Pyridm-2-yl)-2-Hydroxypropyl)Qumolme-6-Carboxamide] are 15 µM and 8.35.
In turn, `COc1cc(C(=O)NC[C@](O)(c2cc(C(C)(C)O)c(F)c(-c3ccc(F)cc3)n2)C(F)(F)F)cc2cc(CF)cnc12` [compound 324, (-)(Fluoromethyl)-8-Methoxy-N-(3,3,3-Trifluoro-2-(5-Fluoro-6-(4-Fluorophenyl)-4-(2-Hydroxypropan-2-yl)Pyridin-2-yl)-2-Hydroxypropyl)Quinoline-6-Carboxamide] registered a CC50 at 3 days in data set [1] of 4 µM. Besides, the pEC50 in data set [2] is 7.92.
In the case of `COc1cc(C(=O)NC[C@](O)(c2cc(C(C)(C)O)c(F)c(-c3ccc(F)cc3)n2)C(F)(F)F)cc2cc(C(F)F)cnc12` [compound 325, (-)(Difluoromethyl)-8-Methoxy-N-(3,3,3-Trifluoro-2-(5-Fluoro-6-(4-Fluorophenyl)-4-(2-Hydroxypropan-2-yl)Pyridin-2-yl)-2-Hydroxypropyl)Quinoline-6-Carboxamide], half-maximal cytotoxicity in data set [1] (CC50 at 3 days) was put at 13 µM. In data set [2], the pEC50 was 8.44.
`COc1cc(C(=O)NC[C@](O)(c2cc(C(C)(C)O)c(F)c(-c3ccc(F)cc3)n2)C(F)(F)F)cc2cc(C(F)(F)F)cnc12` [compound 326, (-)(Trifluoromethyl)-8-Methoxy-N-(3,3,3-Trifluoro-2-(5-Fluoro-6-(4-Fluorophenyl)-4-(2-Hydroxypropan-2-yl)Pyridin-2-yl)-2-Hydroxypropyl)Quinoline-6-Carboxamide] displayed a CC50 at 3 days in data set [1] of 13 µM. Moreover, in data set [2], the pEC50 was 7.59.
Turning to `COc1cc(C(=O)NC[C@](O)(c2cc(C(C)(C)O)c(Cl)c(-c3ccc(F)cc3)n2)C(F)(F)F)cc2cc(C(F)F)cnc12` [compound 327, (-)(Difluoromethyl)-8-Methoxy-N-(3,3,3-Trifluoro-2-(5-Chloro-6-(4-Fluorophenyl)-4-(2-Hydroxypropan-2-yl)Pyridin-2-yl)-2-Hydroxypropyl)Quinoline-6-Carboxamide], the CC50 at 3 days in data set [1] worked out at 15 µM. In addition, the pEC50 in data set [2] was 8.02.
On the same counts, the results for `COc1cc(C(=O)NC[C@](O)(c2cc(C(C)(C)O)c(Cl)c(-c3ccc(F)cc3)n2)C(F)(F)F)cc2cc(C(F)(F)F)cnc12` [compound 328, (-)(Trifluoromethyl)-8-Methoxy-N-(3,3,3-Trifluoro-2-(5-Chloro-6-(4-Fluorophenyl)-4-(2-Hydroxypropan-2-yl)Pyridin-2-yl)-2-Hydroxypropyl)Quinoline-6-Carboxamide] are 14 µM and 7.40.
